Results: patent US20250230138A1, “COMPOUNDS HAVING A T-STRUCTURE FORMED BY AT LEAST FOUR CYCLES FOR USE IN THE TREATMENT OF CANCER AND OTHER INDICATIONS” (TheRas, Inc., priority 2022, published 2025)
Where two headings read alike, the source gives them in different places.

What was measured:
pAKT in BT474 cells = assay: Cell-based pAKT HTRF assay in BT474 cells; details: BT474 cells, 4 hr incubation, read-out: pAKT inhibition IC50 in BT474 cells
Summary of the method: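 pAKT was measured by HTRF after a 4 hr compound exposure in BT474 cells (DMEM, 10% FBS, 0.25% DMSO), using 9 concentrations from 3 μM in 3-fold steps. Cell lysates were incubated with the Eu cryptate/d2 antibody pair at room temperature for 4 to 24 h. The plate was then read at 320 nm excitation and 615 nm emission.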

[1] = biological target: Cys242 in human PIK3CA (157-299) (Homo sapiens (Human), UniProt P42336); assay: Covalent modification assay using MALDI-TOF MS; type: biochemical; details: 4 h reaction time point
Sequence of Cys242 in human PIK3CA (157-299) (P42336 157-299): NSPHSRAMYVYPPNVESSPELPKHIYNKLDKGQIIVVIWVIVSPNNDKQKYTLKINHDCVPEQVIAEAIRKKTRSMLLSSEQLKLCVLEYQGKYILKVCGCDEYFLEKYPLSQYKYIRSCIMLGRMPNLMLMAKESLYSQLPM
Summary of the method: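 PIK3CA (157-299), 3.33 or 1 μM in 20 mM HEPES, 150 mM NaCl, 2 mM MgCl2, pH 7.3, was incubated with compound at room temperature in the dark for 15 min, 30 min, 2 h or 4 h. Linear MALDI-TOF read-out; % modification = adduct peak height over summed heights of all protein species.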

[2] = 3.33 μM protein target, 1:7.5 protein to compound ratio (compounds 1-852)
[3] = 1 μM protein target, 1:5 protein to compound ratio (compounds 853-1279)
[4] = Homo sapiens, BT-474, Compounds 10-999

SMILES	IC50 (pAKT in BT474 cells; Compounds 10-999) [nM]	% of modification [1, 2]	IC50 (pAKT in BT474 cells; Compounds 1000-1279) [nM]	% of modification [1, 3]	IC50 (pAKT in BT474 cells; [4]) [nM]
C=CC(=O)N1Cc2cc(-c3nc(-c4cnc(C)nc4)c4ccsc4c3-c3c(F)cc(F)cc3OCCO)nn2CC1C (centres unmarked) [Compound 831]	< 100	A (percent of modification of PIK3CA protein ≥75%)			
C=CC(=O)N1CCc2nc(-c3nc(-c4ccc5c(c4)CNC(=O)C5)c4ccsc4c3-c3c(F)cc(F)cc3OCCOC)sc2C1 [Compound 1070]			< 100	A (percent of modification of PIK3CA protein ≥75%)	
C=CC(=O)N1Cc2cc(-c3nc(-c4ccc5c(c4)CCN(C)C5)c4ccsc4c3-c3c(F)cc(F)cc3OCC)nn2C(C)C1 (centres unmarked) [Compound 485]	< 100	A (percent of modification of PIK3CA protein ≥75%)			
C=CC(=O)N1CCn2nc(-c3nc(N4CCC5(CN(C)C5)C4)c4ccsc4c3-c3c(F)cc(F)cc3OCCOC)cc2C1C (centres unmarked) [Compound 1055]			100 to 1000	C (25%≤percent of modification <50%)	
C=CC(=O)N1CCn2nc(-c3nc(-c4ccc(C5(C(=O)NC)CC5)cc4)c4ccsc4c3-c3c(F)cc(F)cc3OC)cc2[C@H]1C (single isomer, unassigned) [Compound 1151]			100 to 1000	A (percent of modification of PIK3CA protein ≥75%)	
C=CC(=O)N1CCn2nc(-c3nc(-c4cn(C)cn4)c4ccsc4c3-c3c(F)cc(F)cc3OCCO)cc2[C@@H]1C [Compound 781]	< 100	A (percent of modification of PIK3CA protein ≥75%)			
C=CC(=O)N1CC[C@H](n2cc(-c3nc(-c4cnn(C)c4)c4ccsc4c3-c3c(F)cc(F)cc3OC(C)C)cn2)C1 [Compound 358]	100 to 1000	A (percent of modification of PIK3CA protein ≥75%)			
C=CC(=O)N1CCn2nc(-c3nc(-c4ccc5c(c4)CCN(CC(F)F)CC5)c4ccsc4c3-c3c(F)cc(F)cc3OCCOC)cc2C1C (centres unmarked) [Compound 1122]			< 100	A (percent of modification of PIK3CA protein ≥75%)	
C=CC(=O)N1CCn2nc(-c3nc(-c4cnn(C)c4)c(Cl)cc3-c3ccc(F)cc3OCCOC)cc2C1 [Compound 355, 1-[2-[5-chloro-3-[4-fluoro-2-(2-methoxyethoxy)phenyl]-6-(1-methylpyrazol-4-yl)-2-pyridyl]-6,7-dihydro-4H-pyrazolo[1,5-a]pyrazin-5-yl]prop-2-en-1-one]		A (percent of modification of PIK3CA protein ≥75%)			> 3000
C=CC(=O)N1CCn2nc(-c3nc(-c4ccc5c(c4)CNC(=O)C5)c4ccsc4c3-c3c(F)cc(F)cc3OC[C@@H](C)O)cc2[C@H]1C [Compound 896]	< 100			A (percent of modification of PIK3CA protein ≥75%)	
C=CC(=O)N1CCn2nc(-c3nc(-c4ccc(C5CCCN5C)cc4)c4ccsc4c3-c3c(F)cc(F)cc3OCCOC)cc2C1C (centres unmarked) [Compound 1237]			< 100	A (percent of modification of PIK3CA protein ≥75%)	
C=CC(=O)N1CCn2nc(-c3nc(-c4ccc5c(c4)CCN(C)C5)c4ccsc4c3-c3c(F)cc(F)cc3OC3CC3)cc2[C@@H]1C [Compound 548]	< 100	A (percent of modification of PIK3CA protein ≥75%)			
C=CC(=O)N1Cc2cc(-c3nc(-c4cnn(C(C)C)c4)c4ccsc4c3-c3c(F)cc(F)cc3OCCO)nn2[C@@H](C)C1 [Compound 728]	100 to 1000	D (percent of modification <25%)			
C=CC(=O)N1CCn2nc(-c3nc(-c4ccc(C5CN(C)C5)cc4)c4ccsc4c3-c3c(F)cc(F)cc3OCCOC)cc2C1C (centres unmarked) [Compound 1057]			< 100	A (percent of modification of PIK3CA protein ≥75%)	
C=CC(=O)N1CCn2nc(-c3nc(-c4ccc5oc(C)nc5c4)c4ccsc4c3-c3c(F)cc(F)cc3OC[C@@H](C)O)cc2[C@@H]1C [Compound 655]	< 100	A (percent of modification of PIK3CA protein ≥75%)			
C=CC(=O)N1CCn2nc(-c3nc(-c4ccc(=O)n(CC(F)F)c4)c4ccsc4c3-c3c(F)cc(F)cc3OCCO)cc2C1C (centres unmarked) [Compound 981]	< 100			A (percent of modification of PIK3CA protein ≥75%)	
C=C(F)C(=O)N1CCn2nc(-c3nc(-c4ccc5c(c4)CCN(C)C5)c4ccsc4c3-c3ccc(F)cc3OC(C)C)nc2C1 [Compound 255]	100 to 1000	A (percent of modification of PIK3CA protein ≥75%)			
C=CC(=O)N1CC[C@H](n2cc(-c3nc(-c4cnn(C)c4)c4ccsc4c3-c3ccc(F)cc3OCC3CCNC(=O)C3)ccc2=O)C1 (some centres unmarked) [Compound 213]	100 to 1000	A (percent of modification of PIK3CA protein ≥75%)			
C=CC(=O)N1Cc2cc(-c3nc(-c4cnnc(C)c4)c4ccsc4c3-c3c(F)cc(F)cc3OCCOC)nn2C[C@H]1C [Compound 633]	1000 to 3000	D (percent of modification <25%)			

SMILES	IC50 (pAKT in BT474 cells; Compounds 10-999) [nM]	% of modification [1, 2]	IC50 (pAKT in BT474 cells; Compounds 1000-1279) [nM]	% of modification [1, 3]	IC50 (pAKT in BT474 cells; [4]) [nM]
C=CC(=O)N1CCn2nc(-c3nc(-c4ccc5c(c4)CCN(C)C5)c4ccsc4c3-c3ccc(F)cc3OC(C)C)nc2C1 [Compound 271]	< 100	A (percent of modification of PIK3CA protein ≥75%)			
C=CC(=O)N1CCn2nc(-c3nc(-c4cnn(C)c4)c4ccsc4c3-c3ccc(F)cc3OC(C)C)c(OC)c2C1 [Compound 313]	< 100	A (percent of modification of PIK3CA protein ≥75%)			
CC=C(C#N)C(=O)N1CCn2nc(-c3nc(-c4ccc5c(cnn5C)c4)c4ccsc4c3-c3c(F)cc(F)cc3OCCOC)cc2C1C (centres unmarked) [Compound 1239]			> 1000	C (25%≤percent of modification <50%)	
C=CC(=O)N1CCc2ncc(-c3nc(-c4ccc5c(c4)CCN(C)C5)c4ccsc4c3-c3c(F)cc(F)cc3OC)cc2C1 [Compound 425]	< 100	A (percent of modification of PIK3CA protein ≥75%)			
C=CC(=O)N1CCc2ncc(-c3nc(-c4ccc5c(c4)CN(C)CC5(F)F)c4ccsc4c3-c3c(F)cc(F)cc3OCCOC)cc2C1 [Compound 1274]			< 100	A (percent of modification of PIK3CA protein ≥75%)	
C=CC(=O)N1CCn2nc(-c3nc(-c4ccc5c(c4)CN(C)C5=O)c4ccsc4c3-c3c(F)cc(F)cc3OCCO)cc2C1C (centres unmarked) [Compound 875]	< 100			A (percent of modification of PIK3CA protein ≥75%)	
C=CC(=O)N1CCc2nc(-c3nc(-c4ncn(C)n4)c4ccsc4c3-c3c(F)cc(F)cc3OC(C)C)sc2C1 [Compound 390]	< 100	A (percent of modification of PIK3CA protein ≥75%)			
C=CC(=O)N1CCn2nc(-c3nc(-c4ccc5c(c4)CCN(C)C5(C)C)c4ccsc4c3-c3c(F)cc(F)cc3OCCO)cc2C1C (centres unmarked) [Compound 1181]			< 100	A (percent of modification of PIK3CA protein ≥75%)	
C=CC(=O)N1CCn2nc(-c3nc(-c4cn(C)cn4)c4ccsc4c3-c3c(F)cc(F)cc3OCCOC)cc2[C@H]1C [Compound 741]	< 100	A (percent of modification of PIK3CA protein ≥75%)			
C=C(F)C(=O)N1Cc2cc(-c3nc(-c4ccc5c(cnn5C)c4)c4ccsc4c3-c3c(F)cc(F)cc3OCCOC)nn2CC1C (centres unmarked) [Compound 873]	100 to 1000			D (percent of modification <25%)	
C=CC(=O)N1CCc2cc(-c3nc(-c4ccc5cn(C)nc5c4)c4ccsc4c3-c3c(F)cc(F)cc3OCCO)nn2CC1 [Compound 1210]			< 100	A (percent of modification of PIK3CA protein ≥75%)	
C=CC(=O)N1CCn2nc(-c3nc(-c4ccc5ncn(C)c(=O)c5c4)c4ccsc4c3-c3c(F)cc(F)cc3OCCO)cc2C1C (centres unmarked) [Compound 900]	< 100			A (percent of modification of PIK3CA protein ≥75%)	
C=CC(=O)N1CC(n2cc(-c3nc(C4CCN(S(C)(=O)=O)CC4)c4ccsc4c3-c3ccc(F)cc3OC)cn2)C1 [Compound 296]	1000 to 3000	B (50%<percent of modification <75%)			
C=CC(=O)N1CCc2nc(-c3nc(-c4ccc5c(c4)CCNC5)c4c(c3-c3ccc(F)cc3OC)CCC4)sc2C1 [Compound 96, 1-[2-[4-(4-fluoro-2-methoxy-phenyl)-1-(1,2,3,4-tetrahydroisoquinolin-6-yl)-6,7-dihydro-5H-cyclopenta[c]pyridin-3-yl]-6,7-dihydro-4H-thiazolo[5,4-c]pyridin-5-yl]prop-2-en-1-one]		A (percent of modification of PIK3CA protein ≥75%)			100 to 1000
C=CC(=O)N1CCc2nc(-c3nc(-c4ccc5c(c4)CCNC5=O)c4ccsc4c3-c3c(F)cc(F)cc3OCCOC)sc2C1 [Compound 977]	100 to 1000			A (percent of modification of PIK3CA protein ≥75%)	
C=CC(=O)N1CCn2nc(-c3nc(-c4cnc5c(c4)N(C)C(=O)C5)c4ccsc4c3-c3c(F)cc(F)cc3OCCOC)cc2C1C (centres unmarked) [Compound 1058]			< 100	A (percent of modification of PIK3CA protein ≥75%)	
C=C(F)C(=O)N1CCn2nc(-c3nc(-c4ccc5c(c4)CCNC5=O)c4ccsc4c3-c3ccc(F)cc3OC(C)C)nc2C1 [Compound 256]	100 to 1000	A (percent of modification of PIK3CA protein ≥75%)			
C=CC(=O)N1CCc2nc(-c3nc(-c4ccc5oc(C)nc5c4)c4ccsc4c3-c3c(F)cc(F)cc3OCCOC)sc2C1 [Compound 428]	< 100	A (percent of modification of PIK3CA protein ≥75%)			
